From patent US20050256132A1, “Use of ER selective NF-kB inhibitors for the treatment of sepsis” (priority 2003, published 2005)
pEC50, pIC50: −log10 of the molar value. Read-outs that look alike come from different tables or passages of the source.

Tests used:
ER/IL-6 = experiment: Endothelial Cell ER/IL-6 Assay, IL-6 promoter luciferase (Table 2); type: cell-based, human; conditions: for Emax: read-out: IL6 luc % Efficacy
Method: (§1) T-175 flasks of 100% confluent HAECT-1 cells (immortalized human aortic endothelial cells) were washed with 8 ml of HBSS (HEPES buffered saline solution) and infected for fours hours with 6 ml of a 1:10 dilution of Ad5-wt-hERα virus (an adenovirus transfection vector that mediates CMV promoter driven expression of human ERα) in phenol red free Endothelial Cell Basal medium (Clonetics, San Diego, Calif., Catalog # CC-3129) containing 0.25% bovine serum albumin (EDM-BSA). After four hours, cells were washed with EDM-BSA and incubated overnight in the same medium. Following overnight incubation, cells were washed with EDM-BSA and infected for 2 hours with 6 ml of a 1:10 dilution of Ad5-3x(NFκB).Luc virus (Adenovirus luciferase expression vector driven by three repeats of the MHC NFκb sites 5′ to the thymidine kinase promoter) in EDM-BSA. After two hours, cells were washed and incubated at 34° C. for one hour. Cells were then washed, trypsinized, counted, and resuspended in 95% FBS/5% dimethylsulfoxide at a concentration of […], frozen as 1 or 5 ml aliquots in cryo-vials and stored at −150° C. Control (no ER infection) cells were processed as above without Ad5-wt-hERα virus infection.
(§2) ERα infected HAECT-1 cells or control cells were thawed, diluted 42× in warm EBM-BSA, plated into 96-well plates at 0.1 ml/well and incubated for 4 hours at 34° C. Test compounds were added to the cells at 2× stocks in EBM-BSA containing 2 ng/ml IL-1β Ad6-IL-6(1250 bp).Luc virus and plates were returned to the incubator (34° C.). After […], cells were lysed with 50 μl of Promega Cell Culture Lysis reagenet for about 5 minutes at room temperature on a shaker. After lysing, 15 μl of lysate is transferred to luminometer plates for luciferase determination. Luciferase activity is evaluated using a Perkin Elmer Victor2 1420 multilabel counter. Creatine kinase was determined from the rate of increase in A340 following addition of 100 μl of CK assay reagent (Sigma catalog no. 47-10) to the remainder of the cell lysate.
(§3) For IC50 and EC50 calculations, mean IL-6, luciferase or CK values versus log10 of the compound concentration were fitted to a four parameter logistic equation. The IC50/EC50 value, ‘Hill slope,’ upper and lower limits of the curve were iteratively estimated.

CK = experiment: Creatine kinase assay in ERα infected HAECT-1 cells (Table 2); type: cell-based, human; conditions: for pEC50 / Emax: Homo sapiens; for pEC50: HAECT1; for Emax: HAECT1, read-out: CK % Efficacy
Method: as §1, §2, §3

[1] = Homo sapiens, HAECT1, ERα infected HAECT-1 cells, IL-1β
[2] = Homo sapiens, HAECT1, ERα infected HAECT-1 cells, IL-1β, read-out: IL6 luc IC50
[3] = ERα infected HAECT-1 cells, IL-1β
[4] = ERα infected HAECT-1 cells, IL-1β, read-out: IL6 luc IC50

Row | Compound | Emax (ER/IL-6; [1]) [%] | pIC50 (ER/IL-6; [2]) | IL6 luc % Efficacy (ER/IL-6; [3]) [%] | pIC50 (ER/IL-6; [4]) | CK % Efficacy (CK) [%] | melting point [°C] | also measured
1 | COCCOC[C@](C#N)(C(=O)OC)[C@H](c1ccccc1OC)c1cccc2ccccc12 (relative stereo) [Example 144, Methyl (2S*,3S*)-2-cyano-2-[(2-methoxyethoxy)methyl]-3-(2-methoxyphenyl)-3-(1-naphthyl)propanoate] | 103 | 8.15 | – | – | – | – | pEC50 (CK): 7.72
2 | COC[C@](C#N)(C(=O)OC)[C@H](c1cnc2ccccc2c1)c1ccccc1OC (relative stereo) [Example 165, Methyl (2S*,3R*)-2-cyano-2-(methoxymethyl)-3-(2-methoxyphenyl)-3-quinolin-3-ylpropanoate] | 21 | – | – | – | – | – | Emax (CK): -22%
3 | COCCOC[C@](C#N)(C(=O)OC)[C@H](c1ccccc1OC)c1cccc2ccccc12 [Example 158, Methyl (2S,3S)-2-cyano-2-[(2-methoxyethoxy)methyl]-3-(2-methoxyphenyl)-3-(1-naphthyl)propanoate] | 121 | 8.35 | – | – | – | – | pEC50 (CK): 7.26; Emax (CK): 23%
4 | COCC(C#N)(C(=O)OC)C(c1ccccc1OC)c1ccnc2ccccc12 (stereo not drawn) [Example 162, Methyl (RR,SS)-2-cyano-2-(methoxymethyl)-3-(2-methoxyphenyl)-3-quinolin-4-ylpropanoate] | – | – | 126 | 6.26 | −4 | – | –
5 | COC(=O)[C@@](C)(C#N)[C@H](c1cnc2ccccc2c1)c1ccccc1OC [Example 163, Methyl (SS,RR)-2-cyano-3-(2-methoxyphenyl)-2-methyl-3-(quinolin-3-yl)propanoate] | – | – | −32 | 8.53 | −12 | – | –
6 | COCCOCC(C#N)(C(=O)N1CCN(c2ncccn2)CC1)C(c1ccccc1OC)c1cccc2ccccc12 (stereo not drawn) [Example 167, (RR,SS)-2-[(2-Methoxyethoxy)methyl]-3-(2-methoxyphenyl)-3-(1-naphthyl)-2-[(4-pyrimidin-2-ylpiperazin-1-yl)carbonyl]propanenitrile] | – | – | 72 | 5.91 | −16 | – | –
7 | COCCOC[C@@](C#N)(C(=O)NC(C)(C)C)[C@@H](c1ccccc1OC)c1cccc2ccccc12 [Example 169, (RR,SS)-N-(tert-Butyl)-2-cyano-2-[(2-methoxyethoxy)methyl]-3-(2-methoxyphenyl)-3-(1-naphthyl)propanamide] | – | – | 97 | 6.48 | −8 | – | –
8 | COCCOCC(C#N)(C(=O)N1CC=C(c2c[nH]c3ccccc23)CC1)C(c1ccccc1OC)c1cccc2ccccc12 (stereo not drawn) [Example 172, (RR,SS)-3-[4-(1H-indol-3-yl)-3,6-dihydropyridin-1(2H)-yl]-2-[(2-methoxyethoxy)methyl]-2-[(S*)-(2-methoxyphenyl)(1-naphthyl)methyl]-3-oxopropanenitrile] | – | – | 149 | 6.94 | −13 | – | –
9 | COCCOC[C@@](C#N)(C(=O)OC(C)(C)C)[C@@H](c1ccccc1OC)c1cccc2ccccc12 [Example 173, tert-Butyl (RR,SS)-2-cyano-2-[(2-methoxyethoxy)methyl]-3-(2-methoxyphenyl)-3-(1-naphthyl)propanoate] | – | – | 124 | 7.14 | −13 | – | –
10 | COc1ccccc1[C@H](c1cccc2ccccc12)[C@@](C)(C#N)C(=O)N1CCC(=O)CC1 [Example 191, (2S,3S)-3-(2-methoxyphenyl)-2-methyl-3-(1-naphthyl)-2-[(4-oxopiperidin-1-yl)carbonyl]propanenitrile] | – | – | – | – | – | 209 to 210 | pIC50 (ER/IL-6; Homo sapiens, HAECT1, read-out: IL6 luc IC50): 6.23
11 | CCC(=O)C1(c2ccccc2)CCN(C(=O)[C@](C)(C#N)[C@H](c2ccccc2OC)c2cccc3ccccc23)CC1 [Example 194, (2S,3S)-3-(2-methoxyphenyl)-2-methyl-3-(1-naphthyl)-2-[(4-phenyl-4-propionylpiperidin-1-yl)carbonyl]propanenitrile] | 150 | 6.88 | – | – | – | 126 to 128 | –
12 | COc1ccccc1[C@H](c1cccc2ccccc12)[C@@](C)(C#N)C(=O)N1CCC(C(C)=O)(c2ccccc2)CC1 [Example 195, (2S)-3-(4-acetyl-4-phenylpiperidin-1-yl)-2-[(S)-(2-methoxyphenyl)(1-naphthyl)methyl]-2-methyl-3-oxopropanenitrile] | 74 | 6.15 | – | – | – | 134 to 135 | –
13 | COc1ccccc1[C@H](c1cccc2ccccc12)[C@@](C)(C#N)C(=O)N1CCN(C2CCCCC2)CC1 [Example 196, (2S)-3-(4-cyclohexylpiperazin-1-yl)-2-[(s)-(2-methoxyphenyl)(1-naphthyl)methyl]-2-methyl-3-oxopropanenitrile] | 142 | 7.15 | – | – | – | 137 to 138 | –
14 | COCCN1CCN(C(=O)[C@](C)(C#N)[C@H](c2ccccc2OC)c2cccc3ccccc23)CC1 [Example 197, (2S)-3-[4-(2-methoxyethyl)piperazin-1-yl]-2-[(S)-(2-methoxyphenyl)(1-naphthyl)methyl]-2-methyl-3-oxopropanenitrile] | 46 | 7.41 | – | – | – | 144 | –
15 | COc1ccccc1[C@H](c1cccc2ccccc12)[C@@](C)(C#N)C(=O)N1CCN(CC(=O)N2CCCC2)CC1 [Example 201, (2S,3S)-3-(2-methoxyphenyl)-2-methyl-3-(1-naphthyl)-2-{[4-(2-oxo-2-pyrrolidin-1-ylethyl)piperazin-1-yl]carbonyl}propanenitrile] | 45 | 5.96 | – | – | – | 203 | –
16 | COc1ccccc1[C@H](c1cccc2ccccc12)[C@@](C)(C#N)C(=O)N1CCN(CCCN(C)C)CC1 [Example 202, (2S)-3-{4-[3-(dimethylamino)propyl]piperazin-1-yl}-2-[(S)-(2-methoxyphenyl)(1-naphthyl)methyl]-2-methyl-3-oxopropanenitrile] | 43 | – | – | – | – | 78 to 80 | –
17 | COCCN1CCN(C(=O)C(C#N)(COC)C(c2ccccc2OC)c2cccc3ccccc23)CC1 (stereo not shown) [Example 206, 3-[4-(2-methoxyethyl)piperazin-1-yl]-2-(methoxymethyl)-2-[(2-methoxyphenyl)(1-naphthyl)methyl]-3-oxopropanenitrile] | 83 | 6.46 | – | – | – | 156 to 158 | –
18 | COc1ccccc1C(c1cccc2ccccc12)C(C#N)(COCc1ccccc1)C(=O)N1CCN(CCN2CCOCC2)CC1 (stereo not shown) [Example 208, 2-[(benzyloxy)methyl]-3-(2-methoxyphenyl)-2-{[4-(2-morpholin-4-ylethyl)piperazin-1-yl]carbonyl}-3-(1-naphthyl)propanenitrile] | 50 | 7.89 | – | – | – | 162 | –
19 | COC[C@](C#N)(C(=O)N1CCN(c2ncccn2)CC1)[C@H](c1ccccc1OC)c1cccc2ccccc12 [Example 210, (2S,3S)-2-(methoxymethyl)-3-(2-methoxyphenyl)-3-(1-naphthyl)-2-[(4-pyrimidin-2-ylpiperazin-1-yl)carbonyl]propanenitrile] | 132 | 7.80 | – | – | – | 140 | –
20 | COC[C@@](C#N)(C(=O)N1CCN(c2ncccn2)CC1)[C@@H](c1ccccc1OC)c1cccc2ccccc12 [Example 211, (2R,3R)-2-(methoxymethyl)-3-(2-methoxyphenyl)-3-(1-naphthyl)-2-[(4-pyrimidin-2-ylpiperazin-1-yl)carbonyl]propanenitrile] | 78 | 6.57 | – | – | – | 136 to 137 | –
